In PMC9460159 (iScience, 2022):

What was measured:
YciM = biological target: T1, YciM (Salmonella enterica, UniProt Q7CQG6); test: isothermal titration calorimetry, single-site fit; format: binding
T1 sequence (Q7CQG6 23-389): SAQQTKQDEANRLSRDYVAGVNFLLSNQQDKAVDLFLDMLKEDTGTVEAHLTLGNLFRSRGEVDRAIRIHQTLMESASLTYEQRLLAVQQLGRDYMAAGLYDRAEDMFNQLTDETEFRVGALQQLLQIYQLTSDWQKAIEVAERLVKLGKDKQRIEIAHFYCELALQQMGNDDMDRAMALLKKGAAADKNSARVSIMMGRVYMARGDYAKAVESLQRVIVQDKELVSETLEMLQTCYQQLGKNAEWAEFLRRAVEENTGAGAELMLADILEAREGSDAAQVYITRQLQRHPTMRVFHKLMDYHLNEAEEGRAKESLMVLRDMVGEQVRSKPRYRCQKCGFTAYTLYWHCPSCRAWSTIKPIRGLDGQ

crystal structure = biological target: the molecule itself; test: crystal structure

## CCCCCCCCCCCC(O)CC(=O)O (centres unmarked) [3-hydroxymyristic acid]
YciM
  Kd: 1.25 ± 0.88 µM

B1: YciM cytoplasmic domain of S. typhimurium (domain or fragment, UniProt A0A0F6B1Z6 136-389, looked up)
chain: ETEFRVGALQQLLQIYQLTSDWQKAIEVAERLVKLGKDKQRIEIAHFYCELALQQMGNDDMDRAMALLKKGAAADKNSARVSIMMGRVYMARGDYAKAVESLQRVIVQDKELVSETLEMLQTCYQQLGKNAEWAEFLRRAVEENTGAGAELMLADILEAREGSDAAQVYITRQLQRHPTMRVFHKLMDYHLNEAEEGRAKESLMVLRDMVGEQVRSKPRYRCQKCGFTAYTLYWHCPSCRAWSTIKPIRGLDGQ
Crystal structure
  binding result: binds
